Laboratory results published in patent US8840849B2, “Permeation device and method for reducing aqueous boundary layer thicknesses” (Pion, Inc., priority 2004, dated 2014).
Where a name gives a salt, the structure may show the parent alone.

How the values were obtained:
in vitro = assay: in vitro
Source text: Additionally, those molecular entities that are footnoted as “2” had permeability measurements obtained in an aqueous buffer and a buffer having 20 percent acetonitrile added thereto. For this example, a PAMPA Evolution instrument from pION INC of Woburn, Mass.
Solution pH was adjusted using a universal buffer as well as a buffer solution having a pH of 7.4 and containing a chemical scavenger to simulate serum proteins, which can be obtained from pION INC of Woburn, Mass. […] Donor and acceptor microtitre plates with 96 compartments were also employed for this example. The acceptor plate was obtained from Millipore Corporation of Billerica, Mass.
This approach for determining Pe is often referred to as the pKa^FLUX method.
As indicated above, the acceptor solutions contained a surfactant in order to mimic some of the function of serum proteins.
When not being stirred, a PAMPA sandwich was formed and permitted to incubate in the GUT-BOX at about 23° C. for up to several hours in an atmosphere saturated in humidity and scrubbed free of oxygen and carbon dioxide. Preferably, incubation was performed for up to about four hours. […] For example, the stirring members in FIG. 10 can be magnetized flippers that are controlled by a magnetic stirrer in the GUT-BOX, which causes the members to rotate about a horizontal axis. A speed dial for the magnetic stirrer, as described above, can be calibrated in units of thickness of the expected boundary layer rather than as standard units such as rpm.
After a permeation time in the GUT-BOX was reached, the PAMPA sandwich could then be separated and the donor and acceptor compartments studied for the amount of entity present. The amount of entity present was determined from UV measurements compared to UV spectra obtained from reference standards. The reference UV spectra were performed in a range from about 230 to 500 nanometers (nm). Moreover, mass balance was used to determine the amount of material retained by the porous support and DOUBLE-SINK GIT-0 lipid as generally described by Avdeef et al., Eur. J. Pharm.
The determination of Pe also accounted for the porous support area and its porosity. In particular, the support area of 0.3 centimeters squared (cm^2) was multiplied by the apparent porosity (εa) of the support, which was about 0.76, such as generally described by Nielsen et al., Eur. J. Pharm.
The majority of the data in Tables 1 through 5 is from unstirred assays and those stirred at about 186 rpm. […] The maximum speed used for these entities was 622 rpm.
Again, several entities were studied in a buffer comprising about 20 percent acetonitrile. These entities are footnoted as “1” in Tables 1 through 5. […] Tables 1 through 5 are provided below with Table 1 at 0 rpm, Table 2 stirred at 49 rpm, Table 3 stirred at 118 rpm, Table 4 stirred at 186 rpm and Table 5 stirred at 622 rpm. Tables 1 through 5 also include the standard deviation (SD) of determined Pu values.
The boundary layer thickness (h) in Tables 1 through 5 can be determined by […] of diffusion, which is
Pu values derived at various stirring speeds by using the pKa^FLUX method, as described above, were also subjected to a hydrodynamic analysis using the equation Pu=Kν^α in a logarithmic form. For example, FIG. 13 provides a plot of the logarithm of Pu versus the logarithm of ν comprising 36 measurements based on 14 molecular entities studied at several different stirring speeds. The intercept in such a plot is the logarithm of the stirring efficiency factor (K) with the slope being the hydrodynamic factor (α).

[1] = testosterone at 37° C., Karlsson et al.; dotted curve FIG. 15; cited from earlier work
Caco-2 type cells = conditions: testosterone data at 22° C., Adson et al.; dashed line FIG. 15; cited from earlier work
[2] = PAMPA, Pu (boundary layer permeability)
[3] = PAMPA, Pu (boundary layer permeability), 0 rpm (unstirred), aqueous buffer, pKa^FLUX method
[4] = 0 rpm (unstirred), aqueous buffer, pKa^FLUX method

Structure (SMILES)	Papp at 50 µM (in vitro; [2]) [×10⁻⁶ cm/s]	also measured
CCCC(=O)Nc1ccc(OCC(O)CNC(C)C)c(C(C)=O)c1 (stereo not shown) [Acebutolol, acebutolol]	63	
Cc1nccn1CC1CCc2c(c3ccccc3n2C)C1=O (stereo not shown) [Ondansetron, ondansetron]	59	Pu (boundary layer permeability) (in vitro; PAMPA): 6949
CC(=O)CC(c1ccccc1)c1c(O)c2ccccc2oc1=O (stereo not shown) [Warfarin, warfarin]		Papp at 50 µM (in vitro; [3]): 70 ×10⁻⁶ cm/s
CC(C)(C)c1ccc(C(O)CCCN2CCC(C(O)(c3ccccc3)c3ccccc3)CC2)cc1 (stereo not shown) [Terfenadine, terfenadine]	2440	
CNCCCC1c2ccccc2C=Cc2ccccc21 [Protriptyline, protriptyline-HCl]	2150	
CNCCC=C1c2ccccc2CCc2ccccc21 [Nortriptyline, nortriptyline-HCl]	60	
CC(C)NCC(O)COc1cccc2ccccc12 (stereo not shown) [Propranolol, propranolol-HCl]		Papp at 50 µM (in vitro; [3]): 41 ×10⁻⁶ cm/s; Papp at 50 µM (in vitro; PAMPA, Pu (boundary layer permeability), stirred at 49 rpm, aqueous buffer): 369 ×10⁻⁶ cm/s; Papp at 50 µM (in vitro; PAMPA, Pu (boundary layer permeability), stirred at 118 rpm, aqueous buffer): 601 ×10⁻⁶ cm/s; Papp at 50 µM (in vitro; PAMPA, Pu (boundary layer permeability), stirred at 186 rpm, aqueous buffer): 951 ×10⁻⁶ cm/s; Papp at 50 µM (in vitro; PAMPA, Pu (boundary layer permeability), stirred at 622 rpm, aqueous buffer): 3110 ×10⁻⁶ cm/s
CCOC(=O)C1=C(CSCCN)NC(C)=C(C(=O)OC)C1c1cccc([N+](=O)[O-])c1 (stereo not shown) [Tiamdipine, tiamdipine]		Pu (boundary layer permeability) (in vitro; PAMPA): 951
O=C(O)Cc1cccc(O)c1 [3-hydroxyphenylacetic acid]	50	
Cc1c(OCC(F)(F)F)ccnc1C[S+]([O-])c1nc2ccccc2[nH]1 (stereo not shown) [Lansoprazole, lansoprazole]	35	
O=C1C[C@@H](c2ccc(O)cc2)Oc2cc(O)cc(O)c21 [Naringenin, naringenin]	39	
COc1ccc(CCN2CCC(Nc3nc4ccccc4n3Cc3ccc(F)cc3)CC2)cc1 [Astemizole, astemizole]	746	
C[C@]12CC[C@H]3[C@@H](CCC4=CC(=O)CC[C@@]43C)[C@@H]1CC[C@@H]2O [testosterone]		Daq [1]: 7.84e-06 cm/s; Daq (Caco-2 type cells): 5e-06 cm/s
CCN1CCN(c2cc3c(cc2F)c(=O)c(C(=O)O)cn3C2CC2)CC1C (stereo not shown) [4′N-Et-3′-Me-ciprofloxacin]		Pu (boundary layer permeability) (in vitro; [4]): 53
O=C1NC(=O)C(c2ccccc2)(c2ccccc2)N1 [Phenytoin, phenytoin-Na]	26	
CCCCN1CCN(c2cc3c(cc2F)c(=O)c(C(=O)O)cn3C2CC2)CC1C (stereo not shown) [4′N-Bu-3′-Me-ciprofloxacin]		Pu (boundary layer permeability) (in vitro; [4]): 23
COc1cc2nc(N3CCN(C(=O)c4ccco4)CC3)nc(N)c2cc1OC [Prazosin, prazosin-HCl]	38	
CCC(C)n1ncn(-c2ccc(N3CCN(c4ccc(OCC5COC(Cn6cncn6)(c6ccc(Cl)cc6Cl)O5)cc4)CC3)cc2)c1=O (stereo not shown) [Itraconazole, itraconazole]	1360	Pu (boundary layer permeability) (in vitro; PAMPA, 50 µM): 2210
Clc1ccc(COC(Cn2ccnc2)c2ccc(Cl)cc2Cl)c(Cl)c1 (stereo not shown) [Miconazole, miconazole-nitrate]	1690	Pu (boundary layer permeability) (in vitro; PAMPA, 50 µM): 1520
COC(=O)C1=C(C)NC(C)=C(C(=O)OCCN(C)Cc2ccccc2)C1c1cccc([N+](=O)[O-])c1 (stereo not shown) [Nicardipine, nicardipine]	1250	
CCCN1CCN(c2cc3c(cc2F)c(=O)c(C(=O)O)cn3C2CC2)CC1C (stereo not shown) [4′N-Pr-3′-Me-ciprofloxacin]		Pu (boundary layer permeability) (in vitro; [4]): 40
CN1C(C(=O)Nc2ccccn2)=C(O)c2ccccc2S1(=O)=O [Piroxicam, piroxicam]	31	
CCOC(=O)C1=C(COCCN)NC(C)=C(C(=O)OC)C1c1ccccc1Cl (stereo not shown) [Amlodipine, amlodipine-maleate]	1380	
CCn1cc(C(=O)O)c(=O)c2ccc(C)nc21 [Nalidixic acid, nalidixic acid]	44	
O=C(O)c1ccccc1O [Salicylic acid, salicylic acid]	37	
O=C(O)c1ccc2ccccc2c1 [2-naphthoic acid]	595	
CC(C)Cc1ccc(C(C)C(=O)O)cc1 (stereo not shown) [Ibuprofen, ibuprofen]	40	
C[C@@H](CO)NC(=O)[C@@H]1C=C2c3cccc4[nH]cc(c34)C[C@H]2N(C)C1 [Ergonovine, ergonovine]		Papp at 50 µM (in vitro; PAMPA): 25 ×10⁻⁶ cm/s
CN(C)C/C=C(/c1ccc(Br)cc1)c1cccnc1 [Zimelidine, zimelidine]	1670	
